COC(=O)C1=C(C)NC(C)=C(C(=O)OCC(C)C)C1c1ccccc1[N+](=O)[O-] (stereo not given)
solubility (mole fraction)
Settings	278.15 K	283.15 K	288.15 K	293.15 K	298.15 K	303.15 K	308.15 K	313.15 K	318.15 K
in acetonitrile	0.00826	0.00998	0.0121	0.0145	0.0173	0.0204	0.0241	0.0281	0.0329
in ethyl acetate	0.016	0.0185	0.0214	0.0248	0.0286	0.0324	0.037	0.0419	0.0477
in isopropanol	0.00483	0.00578	0.00688	0.0081	0.00956	0.0111	0.0129	0.015	0.0172
in n-propanol	0.00367	0.00448	0.00553	0.00673	0.00811	0.0097	0.0115	0.0136	0.0162
in water	3.79e-06	5.04e-06	6.75e-06	8.67e-06	1.17e-05	1.51e-05	1.94e-05	2.47e-05	3.09e-05
